Laboratory results published in patent US10689306B2, “Fertilizer composition and methods of making and using same” (SABIC GLOBAL TECHNOLOGIES B.V., priority 2015, dated 2020).

What was measured:
[1] = hot climatic region; cited from earlier work
[2] = cited from earlier work
[3] = Thermal stability of NBTPT at urea melt temperature by HPLC; format: physicochemical; conditions: 133-135° C., over time
Experimental: The percentage of intact NBTPT in the sample is shown in each chromatogram.
Certain fertilizer additives can be unstable and decompose at elevated temperatures. In a conventional manufacturing process, a fertilizer additive is directly exposed to the temperature of a urea melt, which is typically 133-135° C., during the granulation process. […] Accordingly, at least a portion of NBTPT is lost by using conventional methods.
The fertilizers and methods disclosed herein protect the fertilizer additive from being directly exposed to the temperature of a urea melt during the manufacturing process. The fertilizer core particle of the fertilizer comprises a binder, which protects the fertilizer additive from being directly exposed to the urea melt and the temperature of the urea melt. As such, the fertilizer additive is protected from the elevated temperature and is less likely to decompose. […] Thus, the fertilizers and methods disclosed herein prevent loss of a fertilizer additive, such as, for example, without limitation, an inhibitor, for example NBTPT, during the manufacturing process.
The thermal stability of neat NBTPT and NBTPT contained within a core, as disclosed herein, can be determined by HPLC. […] (133-135° C. is the typical temperature range of a urea melt) and can continuously be analyzed by HPLC every 5 min, until data for 30 min was collected. […]

[4] = Nitrogen loss after 17 days of exposure to Upland Crowley Soil (IFDC)
Experimental: The nitrogen volatilization was measured in different soils for several samples and compared to products on the market, such as Agrotain®, ESN®, and SuperU®. The samples were tested in Greenville soil, Crowley soil, and Brownfield Soil.
Crowley soil consists of very deep, somewhat poorly drained, very slowly permeable soils that formed in clayey fluviomarine deposits of the Pleistocene age. The soil exist in nearly level to very gently sloping soils and occur on flat coastal plains terraces. The slope is dominantly less than 1 percent but ranges to up to 3 percent. The mean annual precipitation is about 1549 mm (61 in), and the mean annual air temperature is about 20 degrees c. (68 degrees F.), where the soil is found. The soil is fine, smectitic, and thermic Typic Albaqualfs.

For `N#CN=C(N)N` [DCD, dicyandiamide], the “thermal stability in the soil” value [1] is given as “thermal instability”.

For `CCCCNP(N)(N)=S` [NBTPT, N-(n-butyl) thiophosphoric triamide], the “stability under acidic pH” value [2] is given as “unstable”, the “thermal stability of neat NBTPT” value ([3]; neat, FIG. 13) is given as “decomposes” and the “thermal stability of NBTPT within a fertilizer core particle” value ([3]; within a core, FIG. 14) is given as “stable over time and does not decompose”.

For `NC(N)=O` [Urea, urea], the “Cumulative Nitrogen Loss (mg) by 17 Days” value ([4]; 17 days of exposure to Upland Crowley Soil) was 299.08 mg, the “% Urea” value ([4]; nitrogen loss relative to urea (100), 17 days, Upland Crowley Soil) was 100% and the “% Reduction in Nitrogen Loss” value ([4]; versus urea, 17 days, Upland Crowley Soil) was 0%.
